How the values were obtained:
[1] = target: T1, Human AhR (Homo sapiens, UniProt P35869); assay: Human AhR Reporter Assay System (luciferase); assay type: cell-based; details: 23 h treatment
T1 construct: purchased Indigo Biosciences
T1 sequence (P35869 11-848): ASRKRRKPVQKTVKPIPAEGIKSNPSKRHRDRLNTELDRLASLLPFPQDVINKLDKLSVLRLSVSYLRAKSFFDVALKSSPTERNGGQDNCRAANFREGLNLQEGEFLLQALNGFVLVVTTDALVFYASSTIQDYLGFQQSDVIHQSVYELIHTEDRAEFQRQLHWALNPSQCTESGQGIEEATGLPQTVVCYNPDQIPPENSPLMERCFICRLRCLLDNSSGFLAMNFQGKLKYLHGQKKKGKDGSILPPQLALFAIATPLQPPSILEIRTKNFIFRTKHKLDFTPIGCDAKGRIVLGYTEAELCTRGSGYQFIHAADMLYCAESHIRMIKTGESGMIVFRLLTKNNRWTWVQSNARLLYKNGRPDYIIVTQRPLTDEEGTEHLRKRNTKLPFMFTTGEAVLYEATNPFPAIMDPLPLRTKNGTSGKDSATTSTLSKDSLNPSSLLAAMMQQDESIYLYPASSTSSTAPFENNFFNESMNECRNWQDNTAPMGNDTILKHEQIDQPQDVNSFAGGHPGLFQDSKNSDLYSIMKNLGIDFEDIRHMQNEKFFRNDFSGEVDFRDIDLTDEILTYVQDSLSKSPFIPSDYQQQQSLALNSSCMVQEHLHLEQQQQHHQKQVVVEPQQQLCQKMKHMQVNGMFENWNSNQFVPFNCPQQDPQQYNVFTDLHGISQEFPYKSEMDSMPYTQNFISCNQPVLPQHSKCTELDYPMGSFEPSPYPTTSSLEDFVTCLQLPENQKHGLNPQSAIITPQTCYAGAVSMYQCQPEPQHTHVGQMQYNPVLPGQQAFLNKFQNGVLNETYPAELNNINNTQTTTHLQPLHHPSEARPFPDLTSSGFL
Description: The binding of chemically synthesized secosteroids to AhR was tested using the Human AhR Reporter Assay System (Indigo Biosciences, State College, PA, USA) following the manufacturer's protocol and as detailed previously (Slominski A T, et. al., (2018) Int J Mol Sci 19(10)). Briefly, the cells including the luciferase reporter gene linked to an AhR-responsive promoter were treated with the compounds for 23 h and the luminescence signal was measured using Cytation 5 (Biotek, Winooski, VT, USA) after treatment with the detection substrate provided in the kit system.

[2] = target: T2, LXRβ (Homo sapiens, UniProt P55055); assay: LanthaScreen TR-FRET LXRβ coactivator assay; assay type: biochemical; details: TR-FRET ratio 520/495 nm, FIG. 8E-F
T2 construct: purchased Thermo Fisger Scientific, Inc
T2 sequence (P55055 222-460 limits assumed): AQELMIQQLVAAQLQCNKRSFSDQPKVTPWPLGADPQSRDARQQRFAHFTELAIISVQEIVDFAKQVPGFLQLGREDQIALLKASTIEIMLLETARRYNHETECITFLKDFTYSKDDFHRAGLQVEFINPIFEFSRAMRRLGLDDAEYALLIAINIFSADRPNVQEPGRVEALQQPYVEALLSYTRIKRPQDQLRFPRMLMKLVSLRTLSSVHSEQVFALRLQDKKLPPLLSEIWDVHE
Description: The bindings were performed using the LanthaScreen TR-FRET LXRa/0 Coactivator kit (Thermo Fisger Scientific, Inc., Waltham, MA) as described previously (Slominski A T, et. al., (2021) Sci Rep 11(1) 8002). Briefly, TR-FRET ratios were calculated by dividing the emission at 520 nm by that at 495 nm using Synergy neo2 (BioTek, Winooski, VT).

[3] = tested on: Human epidermal (HaCaT) keratinocytes; assay: Proliferation, MTS assay, keratinocytes; assay type: cell-based; details: 24 h or 48 h, 0.1-100 nM, FIG. 6
Description: (§1) Human dermal fibroblasts isolated from the skin of black neonates (HDFn) and human epidermal (HaCaT) keratinocytes cultured as described previously (Slominski A, et. al., (2013) The Journal of Clinical Endocrinology and Metabolism 98(2) E298-303; Slominski A T, et. al., (2011) Am J Physiol Cell Physiol 300(3) C526-41) were used for the experiments. Briefly, HDFn were plated onto 96-well plates at a confluence of about 70% in their seventh passage. Both HDFn and HaCaT keratinocytes were treated with 20S(OH)D3, 20S,25(OH)2D3, 20S,23S(OH)2D3, 20S,23R(OH)2D3 or 1α,25(OH)2D3 (Sigma-Aldrich, St. Louis, MO, USA) dissolved in ethanol and diluted in DMEM containing charcoal-treated serum, as previously described (Janjetovic Z, et. al., (2021) Endocrinology 162(1); Chaiprasongsuk A, et. al., (2020) Free Radic Biol Med 155 87-98; Slominski A T, et. al., (2011) Am J Physiol Cell Physiol 300(3) (2011) C526-41). The vehicle control comprised 0.1% ethanol. Proliferation was estimated using MTS (Promega, Madison, WI) assay. The number of viable cells was measured in 6 replicates.
(§2) Referring to FIG. 6A-D, inhibition of cell proliferation by 20S(OH)D3, 20S,25(OH)2D3, 20S,23S(OH)2D3 and 20S,23R(OH)2D3 in comparison to 1α,25(OH)2D3 is represented. […] Data are means±SD (n=6) and were analyzed using Student's t-test with p<0.05 (*), p<0.01 (**) or p<0.001 (***).

[4] = tested on: Human dermal fibroblasts (HDFn); assay: Proliferation, MTS assay, fibroblasts; assay type: cell-based; details: 24 h or 48 h, 0.1-100 nM, FIG. 6
Description: as §1, §2

Structure (SMILES)	activity on AhR [1]	activity on LXRβ [2]	inhibition of keratinocyte proliferation [3]	inhibition of fibroblast proliferation [4]
C=C1CC[C@H](O)C/C1=C/C=C1\CCC[C@@]2(C)[C@H]1CC[C@@H]2[C@@](C)(O)C[C@H](O)CC(C)C [20S,23R(OH)2D3, (20S,23R)-20,23-Dihydroxyvitamin D3]	reverse agonist	less efficient in activation of LXRβ than 20S,23S(OH)2D3		
C=C1CC[C@H](O)C/C1=C/C=C1\CCC[C@@]2(C)[C@H]1CC[C@@H]2[C@@](C)(O)CCCC(C)(C)O [20S,25(OH)2D3, (20S)-20,25-Dihydroxyvitamin D3]			inhibits fibroblast and keratinocyte proliferation	inhibits fibroblast and keratinocyte proliferation
C=C1CC[C@H](O)C/C1=C/C=C1\CCC[C@@]2(C)[C@H]1CC[C@@H]2[C@@](C)(O)C[C@@H](O)CC(C)C [20S,23S(OH)2D3, (20S,23S)-20,23-Dihydroxyvitamin D3]	agonistic activity	better affinity with LXRβ		
C=C1CC[C@H](O)C/C1=C/C=C1\CCC[C@@]2(C)[C@H]1CC[C@@H]2[C@@](C)(O)CCCC(C)C [20S(OH)D3, (20S)-20-Hydroxyvitamin D3]			inhibits fibroblast and keratinocyte proliferation	inhibits fibroblast and keratinocyte proliferation

From patent US20240327320A1, “NOVEL ROUTES OF CHEMICAL SYNTHESIS OF 20S(OH)D3, 20S,25(OH)2D3, 20S,23S(OH)2D3, AND 20S,23R(OH)2D3 AND THEIR MODIFICATION OF THE IMMUNE ACTIVITY OF PBMCS” (United State Government as represen ted by the Department …, priority 2023, published 2024)
